Several values for one entry are separate records, joined by “and”; a condition that tells them apart may be missing. Equal values may be shown once.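 Where inhibition never reached the appropriate level, the endpoint shown equals the highest concentration tested. Otherwise, values were interpolated linearly from a five-concentration, 48-hour dose response in 96-well plates. The concentration for 50% growth inhibition is given as GI50. TGI: total growth inhibition.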 Where a SMILES comes first, the peptide text is derived from it. [ ]: non-standard residue; d: D form. The star is where a group is joined. ξ: configuration not given here. NMeY = CN[C@@H](Cc1ccc(O)cc1)C(=O)O; Cbz = O=C(OCc1ccccc1)*; ξA = CC(N)C(=O)O
Experiments:
Experiment in all cases: growth of human tumour cells (NCI), 48 h
BT-549 breast = test system: BT-549 breast
RPMI-8226 leukemia = test system: RPMI-8226 leukemia
NCI/ADR-RES ovarian = test system: NCI/ADR-RES ovarian
SK-OV-3 ovarian = test system: SK-OV-3 ovarian
MOLT-4 leukemia = test system: MOLT-4 leukemia
MDA-N = test system: MDA-N
RXF 393 renal = test system: RXF 393 renal
HOP-92 NSCLC = test system: HOP-92 NSCLC
IGROV1 ovarian = test system: IGROV1 ovarian
MCF7 breast = test system: MCF7 breast

| SMILES | TGI (BT-549 breast) | TGI (RPMI-8226 leukemia) | TGI (NCI/ADR-RES ovarian) | TGI (SK-OV-3 ovarian) | TGI (MOLT-4 leukemia) | TGI (MDA-N) [µM] | TGI (RXF 393 renal) | TGI (HOP-92 NSCLC) | TGI (IGROV1 ovarian) [µM] | TGI (MCF7 breast) | GI50 (BT-549 breast) [µM] | GI50 (RPMI-8226 leukemia) [µM] | GI50 (NCI/ADR-RES ovarian) [µM] | GI50 (SK-OV-3 ovarian) [µM] | GI50 (MOLT-4 leukemia) [µM] | GI50 (MDA-N) [µM] | GI50 (RXF 393 renal) [µM] | GI50 (HOP-92 NSCLC) [µM] | GI50 (MCF7 breast) [µM] |
| --- | --- | --- | --- | --- | --- | --- | --- | --- | --- | --- | --- | --- | --- | --- | --- | --- | --- | --- | --- |
| CC/C(Cl)=N\OC(=O)Nc1ccc(F)c(Cl)c1 | 51.3 µM | > 100 µM | 42.7 µM | 32.5 µM | 2.11 µM | 33.4 | 34.5 µM | 9.41 µM | 34.7 | 20.1 µM | – | – | – | – | – | – | – | – | – |
| COc1ccc(C[C@@H](C(=O)N[C@@H](C)C(N)=O)N(C)C(=O)[C@@H]2CCCN2C(=O)[C@H](CC(C)C)NC(=O)C(C)NC(=O)OCc2ccccc2)cc1 (stereo partly specified) (Cbz-[ξA]LP[NMeY](Me)A-NH2) | > 100 µM | > 100 µM | > 100 µM | > 100 µM | > 100 µM | > 100 | > 100 µM | > 100 µM | > 100 | > 100 µM | – | – | – | – | – | – | – | – | – |
| Cc1cc(C)c(NS(=O)c2ccc(Cl)cc2)c(C)c1 (stereo unspecified) | > 100 µM | > 100 µM | > 100 µM | – | > 100 µM | > 100 | > 100 µM | > 100 µM | – | > 100 µM | – | – | – | – | – | – | – | – | – |
| Cc1nc(C)c(N2CCN(Cc3ccccc3)CC2)c(=O)[nH]1 | > 100 µM | > 100 µM | > 100 µM | > 100 µM | > 100 µM | > 100 | > 100 µM | > 100 µM | > 100 | > 100 µM | – | – | – | – | – | – | – | – | – |
| CCOC(=O)/C(=C\c1c[nH]c2ccccc12)P(=O)(OCC)OCC | 62.7 µM | 76.8 µM | > 100 µM | 90.4 µM | > 100 µM | > 100 | > 100 µM | 77.1 µM | > 100 | > 100 µM | – | – | – | – | – | – | – | – | – |
| COC(C)=NCCC1=CCCCC1 | > 100 µM | > 100 µM | > 100 µM | > 100 µM | > 100 µM | > 100 | > 100 µM | > 100 µM | > 100 | > 100 µM | – | – | – | – | – | – | – | – | – |
| COC1(OC)CCN(Cc2ccccc2)C1=O | 31 µM | 42.8 µM | 55.3 µM | > 100 µM | > 100 µM | 22.6 | 26.4 µM | 23.4 µM | 26.8 | 25.3 µM | – | – | – | – | – | – | – | – | – |
| COc1ccc(C[C@H]2COC(=O)[C@@H]2Cc2ccc(Br)cc2)cc1OC | 84.2 µM | > 100 µM | > 100 µM | > 100 µM | 61.8 µM | > 100 | > 62.8 µM | 79.5 µM | > 92.4 | > 65.4 µM | – | – | – | – | – | – | – | – | – |
| NC(=O)C1=C(O)[C@@]2(O)C(=O)C3=C(O)c4c(O)cccc4CC3C[C@H]2CC1=O (stereo partly specified) | 9.46 µM | 6.12 µM | 13.7 µM | > 28.7 µM | 10.6 µM | 41.2 | 9.58 µM | 6.05 µM | 12.5 | > 49.9 µM | – | – | – | – | – | – | – | – | – |
| CC1=CC2(C)C=C[C@@H]1C(=O)[C@@]1(C)CC[C@@](O)(C(C)C)[C@H]1CC2 | 60.7 µM | 62 µM | 40 µM | 54.6 µM | 51.9 µM | 47.5 | 43.5 µM | 28.2 µM | 51.7 | 76 µM | – | – | – | – | – | – | – | – | – |
| Nc1ncnc2c1ccn2CC#CCO | > 100 µM | > 100 µM | > 100 µM | > 100 µM | > 100 µM | > 100 | > 100 µM | > 100 µM | > 100 | > 100 µM | – | – | – | – | – | – | – | – | – |
| CC(C)(C)OC(=O)N(O)CCCn1cnc2c(NC3CC3)ncnc21 | > 100 µM | > 100 µM | > 100 µM | > 100 µM | > 100 µM | > 100 | > 100 µM | > 100 µM | > 100 | > 100 µM | – | – | – | – | – | – | – | – | – |
| C=CC(C)(C)NC(C(=O)N1CCC[C@H]1c1nc(-c2nc(C(=O)OCC=C(C)C)c(C)o2)c(C)o1)C(C)C (stereo partly specified) | > 100 µM | > 100 µM | > 100 µM | > 100 µM | > 100 µM | 56.2 | > 91.4 µM | > 100 µM | > 100 | > 82.8 µM | – | – | – | – | – | – | – | – | – |
| Cn1c2ncccc2n2c(=O)cc(O)cc12 | > 100 µM | > 100 µM | > 100 µM | > 100 µM | 60.1 µM | > 100 | 75.5 µM | 81.4 µM | 31.5 | > 100 µM | – | – | – | – | – | – | – | – | – |
| O=C1c2ccccc2C(=O)c2c1oc1cc(O)c(Cl)cc21 | 15.5 µM | 55.3 µM | 45.4 µM | 40 µM | > 62.5 µM | 3.35 | 24.5 µM | 25.9 µM | 31.3 | 25.2 µM | – | – | – | – | – | – | – | – | – |
| CC1(C)CC(=O)c2c(-c3ccc(Cl)cc3)c(C#N)c(=S)n(C3OC(CO)C(O)C(O)C3O)c2C1 (stereo unspecified) | > 100 µM | > 100 µM | > 100 µM | – | > 100 µM | 58.3 | > 100 µM | 96.7 µM | > 100 | > 100 µM | – | – | – | – | – | – | – | – | – |
| COc1ccc(/C=C2/SC(=Nc3ccccc3)N(NC(=O)Cc3ccccc3)C2=O)cc1 | > 100 µM | > 100 µM | > 100 µM | > 100 µM | > 100 µM | > 100 | > 100 µM | > 100 µM | > 100 | > 100 µM | – | – | – | – | – | – | – | – | – |
| C1CSCCSCCSCCSCCS1 | > 100 µM | > 100 µM | > 100 µM | > 100 µM | > 100 µM | > 100 | > 100 µM | > 100 µM | > 100 | > 100 µM | – | – | – | – | – | – | – | – | – |
| CN(C)c1n2c3ccc([N+](=O)[O-])cc3n3c(N(C)C)[n+]4ccccc4c3c2c2cccc[n+]12 | > 100 µM | > 100 µM | > 100 µM | > 100 µM | > 100 µM | > 100 | > 100 µM | > 100 µM | > 100 | > 100 µM | – | – | – | – | – | – | – | – | – |
| COc1ccc(COCC[C@H](C)OC2OC(CO[Si](C)(C)C(C)(C)C)C(O)C(O)C2O)cc1 (stereo partly specified) | > 100 µM | > 100 µM | > 100 µM | > 100 µM | > 100 µM | > 100 | > 100 µM | > 100 µM | > 100 | > 100 µM | – | – | – | – | – | – | – | – | – |
| COc1ccc2nc3c4c(nccc4c2c1)-c1ncccc1C3=O | 0.528 µM | 0.236 µM | 7.62 µM | 0.386 µM | 5.31 µM | 0.128 | 1.02 µM | 12.3 µM | 0.279 | 0.179 µM | – | – | – | – | – | – | – | – | – |
| N#Cc1c(C#N)c(SSc2c(C#N)c(C#N)c(N)n2-c2cccc3ccccc23)n(-c2cccc3ccccc23)c1N | 12.6 µM | > 100 µM | > 76.8 µM | 54.8 µM | > 100 µM | 12.4 | 17.4 µM | 13.6 µM | > 100 | > 100 µM | – | – | – | – | – | – | – | – | – |
| COc1ccc2nc3cccc([N+](=O)[O-])c3c(NCCC(=O)O)c2c1 | > 10 µM | > 10 µM | > 10 µM | > 10 µM | > 10 µM | > 10 | > 10 µM | > 10 µM | > 10 | > 10 µM | – | – | – | – | – | – | – | – | – |
| Cc1cn(C2CC(O)C(Cn3nncc3Cn3cnc4c(N)ncnc43)O2)c(=O)[nH]c1=O (stereo unspecified) | > 100 µM | > 100 µM | > 100 µM | > 100 µM | > 100 µM | > 100 | > 100 µM | > 100 µM | > 100 | > 100 µM | – | – | – | – | – | – | – | – | – |
| CSC12c3cc(C)n(-c4ccc(I)cc4)c3CC(C)(C)CN1C(=O)C2Oc1ccccc1 (stereo unspecified) | > 100 µM | > 100 µM | > 100 µM | > 100 µM | > 100 µM | > 100 | > 100 µM | > 100 µM | > 100 | > 100 µM | – | – | – | – | – | – | – | – | – |
| COC(=O)CN1Cc2cc(C)cc(c2O)CN(CC(=O)OC)Cc2cc(C)cc(c2O)CN(CC(=O)OC)Cc2cc(C)cc(c2O)CN(CC(=O)OC)Cc2cc(C)cc(c2O)C1 | 50 µM and 77.7 µM | 50 µM and > 100 µM | 50 µM and 64 µM | 46.2 µM and > 100 µM | 50 µM and > 100 µM | > 100 | 28.6 µM and > 100 µM | > 50 µM and 97.5 µM | 50 | 50 µM and > 100 µM | 15.3 | 87.6 | 21.9 | 35.3 | 39.8 | 84.1 | 36.1 | 21.5 | 39.9 |
| CCOC(=O)/C=C(/C(=O)OCC)n1ccc(=O)n(Cc2cn(CCCCOC(C)=O)nn2)c1=O | > 100 µM | > 100 µM | > 100 µM | > 100 µM | > 100 µM | > 100 | > 100 µM | 20.6 µM | > 100 | > 100 µM | – | – | – | – | – | – | – | – | – |
